# Source: patent US20190391160A1 (INSTITUT PASTEUR, published 2019)
# “Also recorded” adds a separate entry of the source.
# B1: recombinant human non-pancreatic secreted phospholipase A2 group IIA (enzyme, UniProt P14555 21-144, looked up)
# chain: NLVNFHRMIKLTTGKEAALSYGFYGCHCGVGGRGSPKDATDRCCVTHDCCYKRLEKRGCGTKFLSYKFSNSGSRITCAKQDSCRSQLCECDKAAATCFARNKTTYNKKYQYYSNKHCRGSTPRC
# Experiments:
# [1] = target: CFTR (WT-CFTR) Cl− channel (Homo sapiens, UniProt P13569); type: cell-based
# [2] = system: cAMP-dependent Cl− short-circuit current of mouse colon tissue; conditions: 100 μM bumetanide, basolateral side
# Experimental: Mice were 32 to 38 weeks old and weighed 23 to 36 g. Pups were weaned at 21 days and fed solid mouse chow (Teklad 2018S, Harland). All mice were allowed food and water ad libitum until the time of sacrifice by cervical dislocation. Colons were dissected, cut in 4 pieces from rectum to lower intestine. The fragments from colon were introduced immediately into Ussing chambers for subsequent short-circuit experiments.
# Transepithelial transport measurements were performed as described previously^33 in the short-circuit mode (6 mice and 17 tissus). […] The excised colon were stripped of external muscle layers and mounted in Ussing chambers (0.018 cm^2 aperture). Hemichambers were connected to a DVC-1000 voltage clamp (World Precision Instruments, Inc., Sarasota, Fla.) via Ag/AgCl electrodes and 3 M KCl agar bridges for recording of short-circuit current. Currents were stored on a computer using analog-to-digital converter (PowerLab) and LabChart software 5.0. Prior to the experiment, prostaglandin generation was blocked with 10 μM indomethacin on the apical and basolateral sides (incubation of tissue for 30 min before the beginning of the experiment). Transepithelial Isc was calculated as μEq cm^−2 tissue surface area. The apical and basolateral solutions contained (in mM): 116 NaCl, 25 NaHCO3, 1.2 CaCl2, 1.2 MgCl2, 2,4 […], 0,4 KH2PO4, 10 glucose and was gassed with 95% O2-5% CO2 (pH 7.4).
# CFTR channels (WT-CFTR) = CFTR channels (WT-CFTR) (Homo sapiens, UniProt P13569); type: cell-based; conditions: 100 μM glibenclamide and 10 μM inh172
# Excerpt: HeLa cells stably transfected with WT-CFTR were kindly provided by Pascale Fanen (INSERM U955, Créteil, France). The intracellular side of the membrane patch was exposed to a solution containing (in mM): 150 N-methyl-D-gluconate chloride (NMDG-Cl), 0.5 MgCl2, 2 EGTA, 10 HEPES, 10 glucose, pH 7.4, adjusted to pH 7.4 with NMDG. The patch pipettes were filled with (in mM): 150 NMDG-Cl, 0.5 MgCl2, 2 EGTA, 10 HEPES, 10 glucose, 1 ATP-Mg adjusted to pH 7.4 with NMDG. CFTR channels were activated by addition of 40 nM PKA+1 mM ATP-Mg at the intracellular side of the patches. The presence of CFTR channels was verified by addition of 100 μM glibenclamide and 10 μM inh172. The effect of CB was tested by perfusion of 1 nM of CB in the intracellular solution in the presence of 40 nM PKA+0.05, 0.5, or 1 mM ATP-Mg. The currents were recorded as previously described^34. […] Currents were recorded with Bio-logic RK 400 patch-clamp amplifiers (Bio-Logic, Claix, France), monitored using PClamp9 software (Axon Instruments, Foster City, Calif., USA) and stored on a computer. […] We calculated channel activity (NPo) as <I>/i, where <I> is the time-averaged current passing through the channels on the patch with the closed current level as reference and i is the unit current amplitude.
# ΔF508-CFTR = ΔF508-CFTR (Homo sapiens, UniProt P13569, DEL508-508); type: cell-based; conditions: after corrector and CB; inh172 and glibenclamide as a mixture
# ΔF508-NBD1 of CFTR = ΔF508-NBD1 of CFTR (Homo sapiens, UniProt P13569, DEL508-508); type: binding
# [3] = target: recombinant, purified human NBD1 (nucleotide binding domain 1) of CFTR, wild type (human, UniProt P13569 389-678)
# [4] = target: human ΔF508-NBD1 (NBD1 domain of CFTR with deletion of Phe508) (human, UniProt P13569 389-678)
# Chain of human ΔF508-NBD1 (NBD1 domain of CFTR with deletion of Phe508) (P13569 other isoform, or with tags, fused parts or gaps mutant limits assumed): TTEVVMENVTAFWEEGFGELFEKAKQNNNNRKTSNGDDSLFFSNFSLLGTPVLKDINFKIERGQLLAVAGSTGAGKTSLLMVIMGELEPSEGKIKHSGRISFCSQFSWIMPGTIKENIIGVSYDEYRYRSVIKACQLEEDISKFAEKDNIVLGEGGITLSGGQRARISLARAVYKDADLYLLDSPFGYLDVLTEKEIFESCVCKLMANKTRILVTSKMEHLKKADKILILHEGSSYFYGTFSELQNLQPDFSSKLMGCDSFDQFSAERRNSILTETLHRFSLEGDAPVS
# Chain of recombinant, purified human NBD1 (nucleotide binding domain 1) of CFTR, wild type (P13569 389-678 limits assumed): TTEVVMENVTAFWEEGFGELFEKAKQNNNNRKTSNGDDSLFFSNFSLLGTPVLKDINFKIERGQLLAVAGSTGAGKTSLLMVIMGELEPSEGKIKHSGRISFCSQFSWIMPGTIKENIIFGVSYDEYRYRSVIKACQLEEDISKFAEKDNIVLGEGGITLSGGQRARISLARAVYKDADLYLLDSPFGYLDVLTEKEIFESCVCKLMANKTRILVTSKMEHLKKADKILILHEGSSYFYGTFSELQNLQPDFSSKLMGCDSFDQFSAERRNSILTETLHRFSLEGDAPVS
# Chain of ΔF508-NBD1 of CFTR (P13569 with tags, fused parts or gaps DEL508-508 limits assumed): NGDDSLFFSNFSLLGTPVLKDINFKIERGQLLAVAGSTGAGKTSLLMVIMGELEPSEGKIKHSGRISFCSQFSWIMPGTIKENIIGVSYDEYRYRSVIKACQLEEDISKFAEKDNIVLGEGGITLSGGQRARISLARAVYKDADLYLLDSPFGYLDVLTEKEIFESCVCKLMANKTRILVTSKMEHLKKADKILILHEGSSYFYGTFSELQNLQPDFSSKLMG
# Chain of ΔF508-CFTR (P13569 with tags, fused parts or gaps DEL508-508): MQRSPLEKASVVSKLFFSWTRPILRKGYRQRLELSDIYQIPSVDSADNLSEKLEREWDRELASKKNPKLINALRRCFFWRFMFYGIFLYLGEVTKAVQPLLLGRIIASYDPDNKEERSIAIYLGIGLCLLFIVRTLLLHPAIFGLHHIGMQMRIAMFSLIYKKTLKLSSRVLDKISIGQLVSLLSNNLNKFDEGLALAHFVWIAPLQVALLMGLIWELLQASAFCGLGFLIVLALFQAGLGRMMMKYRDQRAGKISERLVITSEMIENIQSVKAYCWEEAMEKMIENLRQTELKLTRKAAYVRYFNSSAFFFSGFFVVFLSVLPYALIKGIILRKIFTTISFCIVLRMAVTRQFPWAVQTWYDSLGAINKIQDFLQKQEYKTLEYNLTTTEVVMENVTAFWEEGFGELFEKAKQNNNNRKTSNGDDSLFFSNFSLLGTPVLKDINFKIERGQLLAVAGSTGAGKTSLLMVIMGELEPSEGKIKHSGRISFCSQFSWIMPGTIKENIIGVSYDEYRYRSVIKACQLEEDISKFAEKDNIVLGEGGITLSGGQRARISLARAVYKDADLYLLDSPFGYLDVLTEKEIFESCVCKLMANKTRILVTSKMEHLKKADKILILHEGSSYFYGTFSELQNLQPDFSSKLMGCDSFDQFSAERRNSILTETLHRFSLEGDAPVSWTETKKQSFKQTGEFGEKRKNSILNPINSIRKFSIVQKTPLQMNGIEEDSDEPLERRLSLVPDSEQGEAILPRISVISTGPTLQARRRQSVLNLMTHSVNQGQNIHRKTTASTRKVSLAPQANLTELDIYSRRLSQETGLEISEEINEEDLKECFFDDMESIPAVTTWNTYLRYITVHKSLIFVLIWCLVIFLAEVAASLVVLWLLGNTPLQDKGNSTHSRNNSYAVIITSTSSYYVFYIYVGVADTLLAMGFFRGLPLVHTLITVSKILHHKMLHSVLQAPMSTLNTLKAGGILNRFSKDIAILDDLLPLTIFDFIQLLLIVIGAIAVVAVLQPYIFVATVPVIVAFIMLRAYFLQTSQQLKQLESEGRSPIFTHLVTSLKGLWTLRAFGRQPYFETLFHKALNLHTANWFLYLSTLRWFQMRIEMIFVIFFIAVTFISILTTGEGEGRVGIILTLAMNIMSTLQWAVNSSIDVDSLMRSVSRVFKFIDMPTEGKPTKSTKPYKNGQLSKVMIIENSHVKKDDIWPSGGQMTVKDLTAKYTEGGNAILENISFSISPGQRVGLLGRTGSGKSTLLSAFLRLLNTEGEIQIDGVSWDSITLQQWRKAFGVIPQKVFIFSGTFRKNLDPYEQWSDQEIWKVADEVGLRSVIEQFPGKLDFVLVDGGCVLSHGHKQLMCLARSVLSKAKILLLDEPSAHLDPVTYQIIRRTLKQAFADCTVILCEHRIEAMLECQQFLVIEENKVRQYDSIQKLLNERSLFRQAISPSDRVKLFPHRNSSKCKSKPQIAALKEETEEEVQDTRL
# Chain of CFTR channels (WT-CFTR) (P13569 whole entry, the tested form may be a part): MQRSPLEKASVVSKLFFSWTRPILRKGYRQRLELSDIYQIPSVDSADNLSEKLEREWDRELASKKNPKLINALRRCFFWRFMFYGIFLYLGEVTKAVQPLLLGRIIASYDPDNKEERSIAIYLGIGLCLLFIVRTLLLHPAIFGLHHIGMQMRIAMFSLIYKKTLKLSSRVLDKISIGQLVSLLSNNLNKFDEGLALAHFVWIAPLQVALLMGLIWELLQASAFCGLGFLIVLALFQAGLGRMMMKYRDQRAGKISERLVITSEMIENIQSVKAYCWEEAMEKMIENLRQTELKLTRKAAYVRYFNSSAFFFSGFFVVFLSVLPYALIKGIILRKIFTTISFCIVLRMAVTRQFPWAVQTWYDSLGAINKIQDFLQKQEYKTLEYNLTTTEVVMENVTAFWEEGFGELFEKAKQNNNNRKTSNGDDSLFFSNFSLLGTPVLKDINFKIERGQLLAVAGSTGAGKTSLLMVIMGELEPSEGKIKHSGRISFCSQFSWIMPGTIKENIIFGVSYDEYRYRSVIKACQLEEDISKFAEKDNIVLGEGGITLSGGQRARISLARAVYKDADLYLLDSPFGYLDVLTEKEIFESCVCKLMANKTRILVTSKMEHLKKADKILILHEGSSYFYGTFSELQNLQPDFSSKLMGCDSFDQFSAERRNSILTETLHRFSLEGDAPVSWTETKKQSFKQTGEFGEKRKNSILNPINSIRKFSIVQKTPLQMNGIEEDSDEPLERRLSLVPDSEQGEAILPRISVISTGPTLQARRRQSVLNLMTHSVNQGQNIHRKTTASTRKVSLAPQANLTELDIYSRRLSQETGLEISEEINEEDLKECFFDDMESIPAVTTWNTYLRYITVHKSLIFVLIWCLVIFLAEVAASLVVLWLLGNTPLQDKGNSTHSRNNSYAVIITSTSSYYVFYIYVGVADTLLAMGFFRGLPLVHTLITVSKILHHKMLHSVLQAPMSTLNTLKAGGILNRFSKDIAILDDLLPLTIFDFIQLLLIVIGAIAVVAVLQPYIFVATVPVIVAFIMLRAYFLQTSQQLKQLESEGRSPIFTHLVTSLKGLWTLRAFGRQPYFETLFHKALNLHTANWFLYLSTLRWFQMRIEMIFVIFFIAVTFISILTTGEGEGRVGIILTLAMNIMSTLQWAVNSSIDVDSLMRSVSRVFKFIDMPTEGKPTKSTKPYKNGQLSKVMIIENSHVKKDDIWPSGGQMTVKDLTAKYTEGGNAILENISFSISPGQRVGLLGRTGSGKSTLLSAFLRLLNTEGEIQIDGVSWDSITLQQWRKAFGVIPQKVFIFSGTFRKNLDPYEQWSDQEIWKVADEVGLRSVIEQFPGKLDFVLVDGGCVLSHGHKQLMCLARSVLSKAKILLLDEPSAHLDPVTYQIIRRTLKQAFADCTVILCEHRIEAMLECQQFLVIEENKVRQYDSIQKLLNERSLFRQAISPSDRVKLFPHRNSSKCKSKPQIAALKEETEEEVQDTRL
# Chain of CFTR (WT-CFTR) Cl− channel (P13569 whole entry): as the sequence (P13569 whole entry, the tested form may be a part) above
molecule,measurement,setting,value
CCCCC/C=C\C/C=C\C/C=C\C/C=C\CCCC(=O)O [arachidonic acid],effect on IcAMP (CFTR-Cl− current),[1],no effect on IcAMP
CCCCNc1cc(C(=O)O)cc(S(N)(=O)=O)c1Oc1ccccc1 [bumetanide],inhibition of the CB-induced Isc increase,[2],inhibited
COc1ccc(Cl)cc1C(=O)NCCc1ccc(S(=O)(=O)NC(=O)NC2CCCCC2)cc1 [glibenclamide],inhibition of the activated channels,CFTR channels (WT-CFTR),inhibited
same,inhibition of the CB-potentiated current,ΔF508-CFTR,only slightly
NAVPFYAFYGCYCGWGGQ,binding of peptide to mutated NBD1,ΔF508-NBD1 of CFTR,has shown interaction; also recorded: interacts with ΔF508-NBD1
same,Cl− channel current,Cl— channel current,increased; also recorded: increases Cl— channel current
glyH101,inhibition of the CB-potentiated current,ΔF508-CFTR,inhibited
B1,Kd,[3],35 nM
same,koff,[3],0.0021 s⁻¹
same,kon,[3],59000 M⁻¹ s⁻¹
same,Kd,[4],37 nM
same,koff,[4],0.0066 s⁻¹
same,kon,[4],180000 M⁻¹ s⁻¹
